Experimental findings from ChEMBL document CHEMBL3272336, “Potential histidine decarboxylase inhibitors. 1. alpha- and beta-substituted histidine analogues” (J Med Chem, 1977) are described below.

Active and inactive are the calls of the source. The rule behind the calls is not given here.

Test [1] deals with T1, Histidine decarboxylase (Rattus norvegicus) (UniProt P16453).
T1 sequence (whole entry): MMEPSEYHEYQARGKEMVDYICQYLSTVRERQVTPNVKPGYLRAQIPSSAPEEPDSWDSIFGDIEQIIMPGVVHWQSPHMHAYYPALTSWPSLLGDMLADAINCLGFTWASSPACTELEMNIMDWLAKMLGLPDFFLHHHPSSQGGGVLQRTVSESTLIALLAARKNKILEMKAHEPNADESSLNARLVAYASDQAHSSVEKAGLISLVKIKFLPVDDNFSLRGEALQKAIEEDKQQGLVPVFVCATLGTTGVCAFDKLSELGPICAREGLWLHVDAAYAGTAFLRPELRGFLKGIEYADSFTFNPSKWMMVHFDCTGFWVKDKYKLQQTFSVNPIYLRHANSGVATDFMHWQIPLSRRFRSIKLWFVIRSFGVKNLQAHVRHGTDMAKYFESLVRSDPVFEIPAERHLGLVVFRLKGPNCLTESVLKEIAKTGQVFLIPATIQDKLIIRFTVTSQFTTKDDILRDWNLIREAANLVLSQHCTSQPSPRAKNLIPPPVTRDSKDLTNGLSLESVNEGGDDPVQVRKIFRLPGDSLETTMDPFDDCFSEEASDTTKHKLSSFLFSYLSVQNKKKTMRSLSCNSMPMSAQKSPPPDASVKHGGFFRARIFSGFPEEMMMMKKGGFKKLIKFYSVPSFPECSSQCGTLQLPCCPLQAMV
In words: Inhibition of histidine decarboxylase in rat pyloric stomach using [carboxyl-14C]-histidine as substrate at 10^-3 M by 14CO2 trapping assay relative to control. It counts as tissue-based.

The target of test [2] is T1, Histidine decarboxylase (Rattus norvegicus). In words: Inhibition of histidine decarboxylase in rat pyloric stomach using [carboxyl-14C]-histidine as substrate at 10^-4 M by 14CO2 trapping assay relative to control. It is filed as tissue-based.

In turn, `CC(C)(c1c[nH]cn1)[C@H](N)C(=O)O` had an inhibition in test [1] of 0%. On to `C[C@](N)(Cc1c[nH]cn1)C(=O)O`, for which the inhibition in test [2] came to 30%; in test [1], 40%.

`CC(c1c[nH]cn1)[C@H](N)C(=O)O` (some centres not stated): in test [2], the inhibition result is “inactive”. As to `CC(C)[C@](N)(Cc1c[nH]cn1)C(=O)O`, the inhibition in test [2] amounted to 0%; in test [1], 1%.

For the compound `CC[C@](N)(Cc1c[nH]cn1)C(=O)O`, the inhibition was found to be 6% in test [2] and 14% in test [1]. In turn, `NC(CCc1c[nH]cn1)C(=O)O` (configuration not stated) came in with an inhibition in test [1] of 0%. In test [1], `CCCC[C@](N)(Cc1c[nH]cn1)C(=O)O` returned an inhibition of 0%. Regarding `N[C@@]1(Cc2c[nH]cn2)CCOC1=O`, the inhibition in test [2] is 12%; in test [1], 19%.
